Data published in ChEMBL document CHEMBL3217577, “Recent applications of multicomponent reactions in medicinal chemistry” (Medchemcomm, 2012).
≈ marks a conversion by molar mass, not a printed value.

Legend:
[1] = target: Glycogen synthase kinase-3 beta (Mus musculus, UniProt Q9WV60); assay: Inhibition of recombinant mouse GSK3beta expressed in COS-1 cells by luciferase reporter gene assay; assay type: cell-based
Plasmodium falciparum [2] = assay: Antiparasitic activity against chloroquine-resistant Plasmodium falciparum assessed as inhibition of parasite survival; assay type: functional, organism-based
HeLa = assay: Antiproliferative activity against human HeLa cells; assay type: functional
Plasmodium falciparum [3] = assay: Ratio of chloroquine IC50 to compound IC50 for chloroquine-resistant Plasmodium falciparum; assay type: functional
Plasmodium falciparum [4] = assay: Antiparasitic activity against chloroquine-resistant Plasmodium falciparum; assay type: functional, organism-based
[5] = target: Mitogen-activated protein kinase 14 (Homo sapiens, UniProt Q16539); assay: Inhibition of p38 alpha MAP kinase (unknown origin)
Mitogen-activated protein kinase 14, sequence (Q16539 whole entry): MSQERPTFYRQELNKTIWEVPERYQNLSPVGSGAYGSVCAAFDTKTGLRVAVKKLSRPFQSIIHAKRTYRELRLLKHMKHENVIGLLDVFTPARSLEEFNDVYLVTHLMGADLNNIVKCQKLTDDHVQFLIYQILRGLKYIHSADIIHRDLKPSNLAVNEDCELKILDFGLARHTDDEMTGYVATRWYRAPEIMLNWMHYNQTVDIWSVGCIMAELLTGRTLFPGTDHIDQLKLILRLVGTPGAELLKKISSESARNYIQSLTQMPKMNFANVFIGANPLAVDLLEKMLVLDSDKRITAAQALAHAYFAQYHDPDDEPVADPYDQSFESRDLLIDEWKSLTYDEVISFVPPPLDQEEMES

[6] = target: T1, M-phase inducer phosphatase 2 (Homo sapiens, UniProt P30305); assay: Inhibition of CDC25B (unknown origin)
T1 sequence (P30305 whole entry): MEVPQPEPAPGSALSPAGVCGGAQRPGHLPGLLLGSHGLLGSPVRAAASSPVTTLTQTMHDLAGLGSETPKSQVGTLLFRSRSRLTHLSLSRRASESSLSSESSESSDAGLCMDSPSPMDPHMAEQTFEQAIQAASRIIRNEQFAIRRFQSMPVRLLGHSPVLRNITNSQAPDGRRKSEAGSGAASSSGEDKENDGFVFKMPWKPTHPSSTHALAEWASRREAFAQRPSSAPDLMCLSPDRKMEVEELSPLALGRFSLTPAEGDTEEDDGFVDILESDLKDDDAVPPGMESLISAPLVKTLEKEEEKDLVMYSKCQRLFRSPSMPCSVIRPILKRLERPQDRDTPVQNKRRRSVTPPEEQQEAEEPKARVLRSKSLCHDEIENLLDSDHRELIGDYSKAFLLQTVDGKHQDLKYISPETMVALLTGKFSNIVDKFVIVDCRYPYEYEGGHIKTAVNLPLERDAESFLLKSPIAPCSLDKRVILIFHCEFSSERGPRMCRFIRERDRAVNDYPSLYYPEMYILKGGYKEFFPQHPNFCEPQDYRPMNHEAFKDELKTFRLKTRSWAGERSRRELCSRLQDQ

[7] = target: T2, Tyrosine-protein phosphatase non-receptor type 1 (Homo sapiens, UniProt P18031); assay: Inhibition of PTP1B (unknown origin)
T2 sequence (P18031 whole entry): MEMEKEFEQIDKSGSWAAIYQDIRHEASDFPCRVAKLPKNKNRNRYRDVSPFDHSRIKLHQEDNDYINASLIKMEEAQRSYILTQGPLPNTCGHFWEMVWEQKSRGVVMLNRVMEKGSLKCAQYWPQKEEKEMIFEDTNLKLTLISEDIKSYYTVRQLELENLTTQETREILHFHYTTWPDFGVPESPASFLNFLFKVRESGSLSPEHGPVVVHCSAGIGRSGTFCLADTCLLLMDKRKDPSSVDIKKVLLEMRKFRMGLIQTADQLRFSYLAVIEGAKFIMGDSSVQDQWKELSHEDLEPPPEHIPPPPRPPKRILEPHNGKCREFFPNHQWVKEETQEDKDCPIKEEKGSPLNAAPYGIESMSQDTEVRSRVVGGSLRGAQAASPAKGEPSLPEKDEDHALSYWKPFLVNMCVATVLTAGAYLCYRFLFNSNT

Aurora kinase A = target: T3, Aurora kinase A (Homo sapiens, UniProt O14965); assay: Inhibition of Aurora A kinase (unknown origin)
T3 sequence (O14965 whole entry): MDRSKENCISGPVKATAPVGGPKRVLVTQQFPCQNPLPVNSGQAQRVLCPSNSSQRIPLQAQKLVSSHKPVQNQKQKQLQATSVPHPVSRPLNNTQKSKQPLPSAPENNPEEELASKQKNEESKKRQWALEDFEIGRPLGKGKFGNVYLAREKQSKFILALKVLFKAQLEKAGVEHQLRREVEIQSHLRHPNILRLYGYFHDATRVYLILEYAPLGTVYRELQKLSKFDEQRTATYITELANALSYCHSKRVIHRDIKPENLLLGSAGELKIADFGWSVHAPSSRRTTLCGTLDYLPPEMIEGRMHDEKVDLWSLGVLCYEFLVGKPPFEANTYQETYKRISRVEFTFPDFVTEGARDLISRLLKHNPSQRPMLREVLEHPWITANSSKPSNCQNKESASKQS

[8] = target: T4, Tyrosine-protein phosphatase non-receptor type 2 (Homo sapiens, UniProt P17706); assay: Inhibition of TC-PTP (unknown origin)
T4 sequence (P17706 whole entry): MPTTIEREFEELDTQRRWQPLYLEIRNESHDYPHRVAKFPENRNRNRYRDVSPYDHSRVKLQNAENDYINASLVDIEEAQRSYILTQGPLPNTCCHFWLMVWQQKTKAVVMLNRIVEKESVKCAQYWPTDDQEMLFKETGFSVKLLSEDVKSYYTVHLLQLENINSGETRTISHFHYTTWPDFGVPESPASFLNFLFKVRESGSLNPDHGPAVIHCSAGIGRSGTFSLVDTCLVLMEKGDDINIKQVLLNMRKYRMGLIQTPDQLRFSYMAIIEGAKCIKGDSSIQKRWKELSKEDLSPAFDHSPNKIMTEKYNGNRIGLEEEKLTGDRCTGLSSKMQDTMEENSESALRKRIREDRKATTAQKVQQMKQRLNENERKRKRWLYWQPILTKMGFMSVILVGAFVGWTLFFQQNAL

[9] = Inhibition of Mycobacterium tuberculosis protein tyrosine phosphatase B
[10] = target: T5, Tumour suppressor p53/oncoprotein Mdm2 (Homo sapiens, UniProt Q00987); assay: Competitive inhibition of recombinant human Mdm2 (aa 1 to 118)-p53 ( 1 to 321) interaction; assay type: protein assay
T5 sequence (P04637 whole entry, the tested form may be a part): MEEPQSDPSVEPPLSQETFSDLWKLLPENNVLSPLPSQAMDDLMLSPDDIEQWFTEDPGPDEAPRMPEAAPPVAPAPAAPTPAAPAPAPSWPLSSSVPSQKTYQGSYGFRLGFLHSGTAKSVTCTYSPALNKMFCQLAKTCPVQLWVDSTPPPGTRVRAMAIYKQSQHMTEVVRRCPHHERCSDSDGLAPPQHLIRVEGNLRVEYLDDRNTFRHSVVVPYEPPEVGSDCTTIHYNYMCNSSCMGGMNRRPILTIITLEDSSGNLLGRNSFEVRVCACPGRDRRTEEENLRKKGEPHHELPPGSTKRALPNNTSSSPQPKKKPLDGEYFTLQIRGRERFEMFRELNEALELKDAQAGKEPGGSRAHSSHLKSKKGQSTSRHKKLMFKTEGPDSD
T5 sequence (Q00987 whole entry, the tested form may be a part): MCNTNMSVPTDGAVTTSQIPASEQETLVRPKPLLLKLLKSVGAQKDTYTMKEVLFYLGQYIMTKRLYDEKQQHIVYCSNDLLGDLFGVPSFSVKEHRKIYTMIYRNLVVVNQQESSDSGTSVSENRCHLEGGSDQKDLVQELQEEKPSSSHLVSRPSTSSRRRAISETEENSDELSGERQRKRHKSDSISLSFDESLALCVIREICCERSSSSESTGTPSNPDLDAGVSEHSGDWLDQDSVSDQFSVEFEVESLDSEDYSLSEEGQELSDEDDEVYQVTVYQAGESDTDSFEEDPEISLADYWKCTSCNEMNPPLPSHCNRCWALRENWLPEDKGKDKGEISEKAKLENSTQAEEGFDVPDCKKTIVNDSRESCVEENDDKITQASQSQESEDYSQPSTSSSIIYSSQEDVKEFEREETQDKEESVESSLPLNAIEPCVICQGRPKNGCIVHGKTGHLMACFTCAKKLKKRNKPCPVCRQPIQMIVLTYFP

[11] = target: T6, E3 ubiquitin-protein ligase Mdm2 (Homo sapiens, UniProt Q00987); assay: Binding affinity to HDM2 ( unknown origin) by NMR analysis
T6 sequence (Q00987 whole entry): as the sequence (Q00987 whole entry, the tested form may be a part) above

[12] = target: T6, E3 ubiquitin-protein ligase Mdm2; assay: Inhibition of Mdm2 in p53-deficient human PA-1 cells; assay type: cell-based
[13] = target: T5, Tumour suppressor p53/oncoprotein Mdm2; assay: Inhibition of Mdm2-p53 interaction in human PA-1 cells; assay type: cell-based
MCF7 = assay: Antiproliferative activity against human MCF7 cells; assay type: functional, cell-based
Trypanosoma cruzi = assay: Antiparasitic activity against epimastigote stage of Trypanosoma cruzi assessed as growth inhibition at 50 uM; assay type: functional
Prolyl endopeptidase = target: T7, Prolyl endopeptidase (Homo sapiens, UniProt P48147); assay: Inhibition of purified prolyl oligopeptidase (unknown origin) after 1 hr by spectrophotometry
T7 sequence (P48147 whole entry): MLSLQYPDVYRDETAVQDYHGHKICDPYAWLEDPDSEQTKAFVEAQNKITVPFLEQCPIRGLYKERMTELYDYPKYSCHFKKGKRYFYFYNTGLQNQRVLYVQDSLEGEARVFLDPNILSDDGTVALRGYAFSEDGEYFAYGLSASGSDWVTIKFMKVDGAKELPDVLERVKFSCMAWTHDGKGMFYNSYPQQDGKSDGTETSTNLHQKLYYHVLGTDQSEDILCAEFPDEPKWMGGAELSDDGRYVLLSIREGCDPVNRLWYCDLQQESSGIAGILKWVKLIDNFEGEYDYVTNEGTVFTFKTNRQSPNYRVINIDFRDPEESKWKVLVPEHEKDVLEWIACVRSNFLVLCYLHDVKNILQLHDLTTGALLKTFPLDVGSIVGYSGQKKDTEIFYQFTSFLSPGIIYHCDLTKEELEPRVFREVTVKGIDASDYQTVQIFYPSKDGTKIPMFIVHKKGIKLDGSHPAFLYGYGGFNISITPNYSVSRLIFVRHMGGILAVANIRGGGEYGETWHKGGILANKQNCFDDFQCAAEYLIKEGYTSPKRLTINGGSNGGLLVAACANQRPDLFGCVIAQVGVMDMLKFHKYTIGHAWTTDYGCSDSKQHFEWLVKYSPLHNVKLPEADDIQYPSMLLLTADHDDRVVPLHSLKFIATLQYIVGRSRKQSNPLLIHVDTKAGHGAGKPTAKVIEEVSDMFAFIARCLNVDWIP

[14] = system: Mycobacterium tuberculosis; assay: Antibacterial activity against Mycobacterium tuberculosis H37Ra; assay type: functional
PC-3 = assay: Cytotoxicity against human PC3 cells; assay type: functional
HT-29 = assay: Cytotoxicity against human HT-29 cells; assay type: functional

Glycogen synthase kinase-3 beta, sequence (Q9WV60 whole entry): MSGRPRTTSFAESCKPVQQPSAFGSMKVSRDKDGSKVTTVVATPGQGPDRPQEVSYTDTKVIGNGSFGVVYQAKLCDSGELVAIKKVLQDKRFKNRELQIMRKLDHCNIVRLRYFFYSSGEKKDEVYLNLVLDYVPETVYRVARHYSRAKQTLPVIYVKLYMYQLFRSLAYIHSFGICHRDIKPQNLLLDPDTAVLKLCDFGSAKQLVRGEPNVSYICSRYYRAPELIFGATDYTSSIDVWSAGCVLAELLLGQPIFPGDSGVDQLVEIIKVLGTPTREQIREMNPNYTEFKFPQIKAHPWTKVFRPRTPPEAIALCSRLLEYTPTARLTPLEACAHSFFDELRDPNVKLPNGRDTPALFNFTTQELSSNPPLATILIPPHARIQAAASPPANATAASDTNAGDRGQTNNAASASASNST

Compound: c1cnc2nc(-c3ccc4[nH]ncc4c3)c(NC3CCCCC3)n2c1
- Ki [1]: 10 nM

Compound: O=C(CN(CCCNc1ccnc2cc(Cl)ccc12)C(=O)c1ccncc1)NC1CCCCC1
- IC50 (Plasmodium falciparum [2]): 610 nM

Compound: O=C(CN(CCCNc1ccnc2cc(Cl)ccc12)C(=O)c1cnccn1)NC1CCCCC1
- IC50 (Plasmodium falciparum [2]): 540 nM

Compound: Cc1cc2c(c(=O)n1C)C(c1ccc(N(C)C)c(Br)c1)C(C#N)=C(N)O2 (stereo not given)
- GI50 (HeLa): 330 nM

Compound: CC(NCCCNc1ccnc2cc(Cl)ccc12)c1nc(Cc2ccccc2)c(N2CCOCC2)o1 (stereo not given)
- Ratio IC50 (Plasmodium falciparum [3]): 21
- IC50 (Plasmodium falciparum [4]): 3.8 nM

Compound: Cc1ccoc1-c1cc(-c2ccc(Br)cc2)[nH]c(=N)c1C#N
- IC50 [5]: 70 nM

Compound: N#Cc1c(-c2ccc(Cl)c(Cl)c2)cc(-c2ccc(Br)cc2)nc1N
- IC50 [5]: 120 nM

Compound: COC(c1ccc(C)cc1)c1cnn2c(-c3ccccc3)cc3c(Cl)cccc3c12 (stereo not given)
- IC50 [6]: 2190 nM
- IC50 [7]: 1000 nM
- IC50 (Aurora kinase A): 13.4 µM
- IC50 [8]: 4.5 µM

Compound: COc1ccc(NN2[C@@H]([C@H](O)c3cc(Br)c(OC)c(OC)c3)C=C[C@H]3C(=O)N(C4CCCCC4)C(=O)[C@H]32)cc1
- IC50 [9]: 66 µM

Compound: O=C1NC(=O)[C@@H]2C=C[C@H]([C@H](O)C3CC=CCC3)N(Nc3ccc(Cl)cc3Cl)[C@H]12 (stereo not given in full)
- IC50 [9]: 68 µM

Compound: O=C(NCc1ccccc1)C1C(=O)Nc2sc3c(c2C(=O)N1Cc1ccc(Cl)cc1)CCCC3 (stereo not given)
- Ki [10]: 40 µM

Compound: O=C(NCc1ccc(Cl)c(Cl)c1)C1C(=O)Nc2sc3c(c2C(=O)N1Cc1ccc(Cl)cc1)CCCC3 (stereo not given)
- Ki [10]: 45 µM

Compound: Cc1ccc(S(=O)(=O)/N=C(\Nc2ccc(Cl)cc2)NC(C)(C)C)cc1
- Kd [11]: > 100 µM

Compound: O=C1C(O)=C(c2ccccc2)C(c2ccc(Cl)cc2)N1Cc1ccc(Cl)cc1 (stereo not given)
- IC50 [12]: 26.2 µM
- IC50 [13]: 12.2 µM
- Kd [11]: > 200 µM

Compound: CC1(C)CC(=O)C2=C(C1)Oc1ccc3ccccc3c1C2c1ccc(O)cc1 (stereo not given)
- IC50 (MCF7): 6.7 µg/mL (≈ 18.1 µM)

Compound: N#CC1=C(N)Oc2ccc3ccccc3c2C1c1ccc([N+](=O)[O-])cc1 (stereo not given)
- IC50 (MCF7): 8.9 µg/mL (≈ 25.9 µM)

Compound: CC1(C(=O)NC2CCCCC2)CCCC(=O)N1CCCCCNc1ccnc2cc(Cl)ccc12 (stereo not given)
- IC50 (Plasmodium falciparum [4]): 96 nM

Compound: COC(=O)C1=C(C)N(C)C(=O)N(C(=O)NCCCCNc2ccnc3cc(Cl)ccc23)C1c1ccc(OC)cc1 (stereo not given)
- Ratio IC50 (Plasmodium falciparum [3]): 200
- IC50 (Plasmodium falciparum [4]): 4 nM

Compound: CNC(=O)CC1S/C(=N\N=C(/C)c2ccc(Br)cc2)N(C)C1=O (stereo not given)
- inhibition at 50 µM (Trypanosoma cruzi): 60%

Compound: CCOC(=O)c1ccc2c(c1)c1c(c(-c3cccc4ccccc34)[n+]2C)CCO1
- IC50 (Prolyl endopeptidase): 75 µM

Compound: COc1ccc(C2Nc3ccccc3C3CCCOC32)cc1 (stereo not given)
- MIC [14]: 6.25 µM (≈ 1.85 µg/mL)

Compound: Cn1c(=O)c2c(c3ccccc31)OC(N)=C(C#N)C2c1cncc(Br)c1 (stereo not given)
- GI50 (HeLa): 13 nM

Compound: CC1CS(=O)(=O)CCN1/N=C/c1ccc([N+](=O)[O-])o1 (stereo not given) [NIFURTIMOX]
- inhibition at 50 µM (Trypanosoma cruzi): 100%

Compound: CC(=O)O[C@H]1C(=O)[C@@]2(C)[C@H]([C@H](OC(=O)c3ccccc3)[C@]3(O)C[C@H](OC(=O)[C@H](O)[C@@H](NC(=O)c4ccccc4)c4ccccc4)C(C)=C1C3(C)C)[C@]1(OC(C)=O)CO[C@@H]1C[C@@H]2O [PACLITAXEL]
- GI50 (PC-3; Homo sapiens, PC-3): 7.2 nM
- GI50 (HT-29; Homo sapiens, HT-29): 5.3 nM

Compound: CC/C(=C(\c1ccccc1)c1ccc(OCCN(C)C)cc1)c1ccccc1 [TAMOXIFEN]
- IC50 (MCF7): 10 µg/mL (≈ 26.9 µM)

Compound: CC[C@@H](C)[C@H](NC(=O)[C@H]1CCCCN1C)C(=O)N(COC(=O)CC(C)C)[C@H](C[C@@H](OC(C)=O)c1nc(C(=O)N[C@@H](Cc2ccc(O)cc2)C[C@H](C)C(=O)O)cs1)C(C)C [TUBULYSIN A]
- GI50 (PC-3): 0.21 nM
- GI50 (HT-29): 0.32 nM
